Assay results reported in paper PMC11013038, “Design, Synthesis, and Evaluation of B-(Trifluoromethyl)phenyl Phosphine–Borane Derivatives as Novel Progesterone Receptor Antagonists” (Molecules, 2024).

Columns and labels:
[1] = LogP (1-octanol/water partition coefficient) determined using HPLC; format: physicochemical; conditions: HPLC (OECD guideline), C18 column, methanol–water 75% (v/v), 40 °C, mean of triplicate
Procedure: Hydrophobicity is a key determinant of the activity and pharmacokinetics of biologically active compounds, and the octanol–water partition coefficient (P) and logarithm value (LogP) are widely used hydrophobicity parameters. The LogP values of the synthesized compounds were determined using HPLC [45, 46]. Table 1 summarizes the experimentally determined LogP values and calculated values. […] From the viewpoint of the phosphine structure, an increase in the number of carbon atoms increased hydrophobicity in a predictable manner.
The 1-octanol/water partition coefficient P was determined using HPLC based on the OECD Guideline for Testing Chemicals. A COSMOSIL Packed Column 5C18-MS-II (5 μm, 150 mm × 4.6 mm id, Nacalai Tesque, Inc., Kyoto, Japan) was fitted on an HPLC instrument (Multiwavelength Detector, MD-2010 Plus. JASCO, Tokyo, Japan) equipped with a pump (PU-2080, JASCO) and an oven (SSC-2120, Senshu Scientific Co., Ltd., Tokyo, Japan). The injection volume was 20 µL; the mobile phase was methanol–water 75% (v/v); and the flow rate was 1.0 mL/min in all cases. Compounds were detected by measuring the UV absorption at 240 nm. The temperature of the column was kept at 40.0 (± 0.1) °C during the measurement. The measurement was performed in triplicate, and the mean value was calculated. The dead time t0 was measured with thiourea as the unretained compound, and the capacity factor k was calculated using the equation logk = log (tr − t0/t0), where tr represents the retention time of the compound. A calibration graph was determined experimentally using reference compounds (4-methylphenol, 4-chlorophenol, 4-phenylphenol, diphenylether, fluoranthene, and dichlorodiphenyltrichloroethane) with known logP values. The LogP values of phosphine–boranes were calculated based on a calibration graph (LogP = 2.6269 logkw + 3.059, R^2 = 0.9915).

[2] = molecular target: T1, androgen receptor (AR) (Mus musculus, UniProt P19091); test: SC-3 cell proliferation assay, AR agonistic activity (compound alone); format: cell-based, murine; conditions: for EC50: SC-3 cells, induction of cell proliferation by single treatment of the compound, 0.01 μM to 10 μM, read-out: EC50 (agonist); for effect on SC-3 cell growth in the absence of dihydrotestosterone (AR agonistic activity): androgen-dependent SC-3 cells
T1 construct: SC-3 cells were cultured in MEMα (Fujifilm Wako Co.) supplemented with 2 %; endogenous in cells; host or cells: SC-3
T1 sequence (P19091 1-899): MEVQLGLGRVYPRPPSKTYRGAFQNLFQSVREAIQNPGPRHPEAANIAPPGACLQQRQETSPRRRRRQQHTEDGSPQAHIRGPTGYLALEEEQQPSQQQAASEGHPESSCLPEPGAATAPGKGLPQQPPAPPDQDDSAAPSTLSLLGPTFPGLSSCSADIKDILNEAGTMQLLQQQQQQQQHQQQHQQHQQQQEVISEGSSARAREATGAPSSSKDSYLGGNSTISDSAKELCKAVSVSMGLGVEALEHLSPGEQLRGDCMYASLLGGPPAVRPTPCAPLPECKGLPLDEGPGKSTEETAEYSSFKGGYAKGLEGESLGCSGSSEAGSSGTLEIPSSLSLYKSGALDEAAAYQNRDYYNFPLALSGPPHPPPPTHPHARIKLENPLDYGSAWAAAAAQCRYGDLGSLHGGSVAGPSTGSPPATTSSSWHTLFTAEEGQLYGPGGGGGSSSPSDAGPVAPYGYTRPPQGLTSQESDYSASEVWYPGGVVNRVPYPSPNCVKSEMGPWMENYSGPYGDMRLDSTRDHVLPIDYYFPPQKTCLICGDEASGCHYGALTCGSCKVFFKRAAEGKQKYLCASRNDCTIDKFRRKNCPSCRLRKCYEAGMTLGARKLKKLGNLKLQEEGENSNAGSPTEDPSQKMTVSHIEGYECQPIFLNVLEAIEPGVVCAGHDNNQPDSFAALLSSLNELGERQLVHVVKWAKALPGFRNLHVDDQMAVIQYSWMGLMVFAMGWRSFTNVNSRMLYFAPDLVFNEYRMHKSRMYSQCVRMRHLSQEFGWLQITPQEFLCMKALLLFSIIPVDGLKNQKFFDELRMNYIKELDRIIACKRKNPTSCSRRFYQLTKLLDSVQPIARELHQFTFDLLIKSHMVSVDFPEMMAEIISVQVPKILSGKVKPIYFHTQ

[3] = molecular target: T1, androgen receptor (AR); test: SC-3 cell proliferation assay, AR antagonistic activity (1 nM DHT-promoted proliferation); format: cell-based, murine; conditions: for effect on SC-3 cell growth in the presence of dihydrotestosterone (AR antagonistic activity): androgen-dependent SC-3 cells; for IC50: read-out: IC50 (antagonist)

Row | SMILES | chromatographic logP [1] | EC50 [2] [µM] | effect on SC-3 cell growth in the absence of dihydrotestosterone (AR agonistic activity) [2] | effect on SC-3 cell growth in the presence of dihydrotestosterone (AR antagonistic activity) [3] | IC50 [3] [µM] | melting point [°C]
1 | C[P+](C)(C)[BH2-]c1ccc(C(F)(F)F)cc1 [Compound 28, B-4-(Trifluoromethyl)phenyl Trimethylphosphine–Borane] | 3.65 | > 10 | did not affect cell growth | did not affect cell growth | > 10 | –
2 | FC(F)(F)c1ccc([BH2-][P+](C2CC2)(C2CC2)C2CC2)cc1 [Compound 34, B-4-(Trifluoromethyl)phenyl Tricyclopropylphosphine–Borane] | 5.32 | > 10 | did not affect cell growth | did not affect cell growth | > 10 | 72.6 to 72.8
